{"source": "patent US10767160B2", "about": "“Methods for modulating production profiles of recombinant proteins” (ARES TRADING S.A., priority 2015, dated 2020)", "key": {"recombinant CHO cells [1]": {"tested_on": "recombinant CHO cells", "conditions": "batch culture, end of production run, after 8 days of culture; cited from earlier work"}, "recombinant CHO cells [2]": {"tested_on": "recombinant CHO cells", "conditions": "perfusion batch culture, within 6 days of treatment; cited from earlier work"}, "[3]": {"tested_on": "CHO-S cells expressing IgG1 mAb1", "assay": "Fed-batch culture in microplates, host cells expressing mAb1", "assay_type": "cell-based, Chinese Hamster", "description": "(§1) Assays were performed with 2 CHO cell lines: • CHO-S cells expressing IgG1 mAb1, herein “Cells mAb1” or “mAb1 cells”. “mAb1” is a fully human monoclonal antibody directed against a soluble protein. Its isoelectric point (pI) is about 8.20-8.30. • CHO-K1 cells expressing IgG1 mAb2, herein “Cells mAb2” or “mAb2 cells”. “mAb2” is a humanised monoclonal antibody directed against a receptor found on the cell membrane. Its isoelectric point (pI) is about 9.30. 2) Cell Expansion\n(§2) Cells expressing mAb2 were inoculated at 0.2×10^6 cells per millilitre (mL), whereas cells expressing mAb1 were inoculated at 0.3×10^6 cells per mL.\n(§3) All assays were performed in fed-batch culture. The host cells were cultured in fed-batch system either in microplates (“Deep well plate”) or in Spin Tubes®, and incubated at 36.5° C., 90% relative humidity, 5% CO2 and 320 rpm shaking during 14 days.\n(§4) Viable cell density and viability were measured with the Guava easyCyte® flow cytometer or with the ViCell.\n(§5) Antibody titres were measured with the fortêBIO Octet® or with Biacore C®.\n(§6) Glycosylation profiles were established by capillary gel electrophoresis with laser-induced fluorescence (CGE-LIF). Dosages of aggregates and fragments were performed respectively via Size Exclusion High Performance Liquid Chromatography (SE-HPLC) and SDS-capillary gel electrophoresis."}, "[4]": {"tested_on": "CHO-S cells expressing IgG1 mAb1", "assay": "Fed-batch culture in Spin Tubes, host cells expressing mAb1", "assay_type": "cell-based, Chinese Hamster", "description": "as §1, §2, §3, §4, §5, §6"}, "[5]": {"tested_on": "CHO-K1 cells expressing IgG1 mAb2", "assay_type": "cell-based, Chinese Hamster", "description": "as §1, §2, §3, §4, §5, §6"}, "[6]": {"conditions": "about 167 μM or about 417 μM, microplates"}, "[7]": {"conditions": "up to 25 μM and 41.7 μM, microplates"}, "[8]": {"conditions": "similar concentrations (8.5 μM), Spin tubes"}, "[9]": {"conditions": "about 0.4 μM to about 17 μM, microplates"}, "[10]": {"conditions": "about 83 μM to about 833 μM, microplates"}, "[11]": {"conditions": "about 4.3 and/or about 8.5 μM, Spin Tubes"}}, "note": "Read-outs that look alike come from different tables or passages of the source."}
{"smiles": "CCCC(=O)[O-].[Na+]", "note": "[sodium butyrate]", "values": [{"measurement": "cell viability", "setting": "recombinant CHO cells [1]", "value": "less than 45%"}, {"measurement": "cell viability", "setting": "recombinant CHO cells [2]", "value": 15, "unit": "%"}]}
{"smiles": "Nc1c(S(=O)(=O)O)cc(Nc2ccc(Nc3nc(Cl)nc(Nc4ccccc4S(=O)(=O)O)n3)c(S(=O)(=O)O)c2)c2c1C(=O)c1ccccc1C2=O", "note": "[Cibacron Blue 3GA]", "values": [{"measurement": "titre", "setting": "[3]; about 83 μM, microplates", "value": "still significantly increased"}, {"measurement": "cell viability", "setting": "[3]; [6]", "value": "decreased"}, {"measurement": "titre", "setting": "[3]; [6]", "value": "impact on the titre was observed"}, {"measurement": "quantity of secreted recombinant protein (titre) compared to control", "setting": "[3]; about 8.3 to about 41.7 μM, microplates", "value": 1.5, "unit": "fold"}, {"measurement": "titre", "setting": "[3]; [7]", "value": "increased significantly"}, {"measurement": "viable cell density", "setting": "[3]; [7]", "value": "increased significantly"}, {"measurement": "specific productivity", "setting": "[4]; 8.5 μM, Spin tubes", "value": "significantly increased"}, {"measurement": "titre increase at the end of the culture", "setting": "[4]; 8.5 μM, Spin tubes", "value": 1.25, "unit": "factor"}, {"measurement": "maximum density of viable cells", "setting": "[4]; 8.5 μM, days 6-9, Spin tubes", "value": "increased"}, {"measurement": "viability compared to control", "setting": "[4]; 8.5 μM, starting on day 7, Spin tubes", "value": "decrease of viability"}, {"measurement": "productivity of antibodies mAb2", "setting": "[5]; [8]", "value": "increased"}, {"measurement": "titre multiplied at the end of cell culture", "setting": "[5]; [8]", "value": 1.2}]}
{"smiles": "O=S(=O)(O)c1cc(Nc2nc(Cl)nc(Nc3ccc(Nc4nc(Cl)nc(Nc5cc(S(=O)(=O)O)cc6cc(S(=O)(=O)O)c(N=Nc7ccccc7S(=O)(=O)O)c(O)c56)n4)cc3)n2)c2c(O)c(N=Nc3ccccc3S(=O)(=O)O)c(S(=O)(=O)O)cc2c1", "note": "[Reactive Red 120]", "values": [{"measurement": "viable cell density increase compared to control", "setting": "[3]; 17.3 μM, day 7, microplates", "value": 1.5, "unit": "factor"}, {"measurement": "titre increase compared to control", "setting": "[3]; 17.3 μM, day 14, microplates", "value": 1.3, "unit": "factor"}, {"measurement": "maximum titre relative to control cells", "setting": "[3]; 83 μM, microplates", "value": 1.2, "unit": "fold"}, {"measurement": "cell viability", "setting": "[3]; [9]", "value": "(slightly) reduced"}, {"measurement": "titre", "setting": "[3]; [9]", "value": "increased significantly"}, {"measurement": "viable cell density", "setting": "[3]; [9]", "value": "increased significantly"}, {"measurement": "toxicity limit", "setting": "[3]; about 17 μM, microplates", "value": "did not seem to have been reached"}, {"measurement": "cell viability", "setting": "[3]; [10]", "value": "decrease significantly"}, {"measurement": "titre", "setting": "[3]; [10]", "value": "remained superior or equal to what was obtained with control cells"}, {"measurement": "viable cell density", "setting": "[3]; [10]", "value": "decrease significantly"}, {"measurement": "toxicity", "setting": "[3]; above 83 μM, microplates", "value": "becomes toxic"}, {"measurement": "titre increase", "setting": "[4]; 8.6 μM, Spin Tubes", "value": 1.2, "unit": "factor"}, {"measurement": "cell viability compared to control", "setting": "[4]; about 4.3 and/or about 8.5 μM, after day 10, Spin Tubes", "value": "only slightly affected"}, {"measurement": "viable cell density", "setting": "[4]; about 4.3 and/or about 8.5 μM, days 5-9, Spin Tubes", "value": "increased"}, {"measurement": "specific productivity", "setting": "[5]; [11]", "value": "increase"}, {"measurement": "titre", "setting": "[5]; [11]", "value": "increase"}, {"measurement": "viability compared to control", "setting": "[5]; until the end of the culture, Spin Tubes", "value": "maintained"}]}
